By Ki is commonly meant the equilibrium dissociation constant of an inhibitor or competing ligand from its target.

This test has as its target Calcitonin gene-related peptide type 1 receptor/Receptor activity-modifying protein 1 (Homo sapiens, UniProt Q16602+O60894). The experiment in a line: Displacement of [125I]-hCGRP from human CALCRL/RAMP1 expressed in HEK293 cell membranes.

Calcitonin gene-related peptide type 1 receptor/Receptor activity-modifying protein 1, sequence (Q16602 whole entry): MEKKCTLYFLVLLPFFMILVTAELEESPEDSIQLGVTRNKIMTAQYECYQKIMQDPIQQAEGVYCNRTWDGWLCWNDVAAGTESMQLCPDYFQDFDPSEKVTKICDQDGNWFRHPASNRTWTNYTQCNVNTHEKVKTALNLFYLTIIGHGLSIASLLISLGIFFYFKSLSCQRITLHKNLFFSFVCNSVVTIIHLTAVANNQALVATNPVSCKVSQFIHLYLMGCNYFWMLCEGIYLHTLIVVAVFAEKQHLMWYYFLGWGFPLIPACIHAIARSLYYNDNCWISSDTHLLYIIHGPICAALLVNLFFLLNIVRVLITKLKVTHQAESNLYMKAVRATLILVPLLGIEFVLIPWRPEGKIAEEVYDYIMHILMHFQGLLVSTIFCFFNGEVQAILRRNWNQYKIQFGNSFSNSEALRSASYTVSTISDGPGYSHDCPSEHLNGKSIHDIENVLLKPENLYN
Calcitonin gene-related peptide type 1 receptor/Receptor activity-modifying protein 1, sequence (O60894 whole entry): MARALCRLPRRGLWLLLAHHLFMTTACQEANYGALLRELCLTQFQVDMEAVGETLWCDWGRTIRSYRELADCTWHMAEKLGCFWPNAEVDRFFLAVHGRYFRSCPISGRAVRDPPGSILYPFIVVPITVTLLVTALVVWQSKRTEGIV

As for `C[C@H](c1cc(F)cc(F)c1)N(C/C=C/c1cnc2c(c1)C[C@@]1(C2)C(=O)Nc2ncccc21)C(=O)C1(C(F)(F)F)CC1` [US8552023, 11], the Ki is 0.05 nM. With `Cc1ccc([C@@H](C)N(C/C=C/c2cnc3c(c2)C[C@@]2(C3)C(=O)Nc3ncccc32)C(=O)C(C)(C)C)cc1F` [US8552023, 13] the figure was 0.13 nM.

These data come from BindingDB's records for doi:10.1016/j.bmcl.2013.11.027 (Merck, 2013).
